Laboratory results taken from US8168679B2, “Salts of Tramadol and Naproxen and their crystal forms in the treatment of pain” (Laboratorios del Dr. Esteve, S.A., priority 2007, dated 2012).
Counter-ions that a name gives are not always drawn.

What was measured:
[1] = Determination of the hygroscopicity of the crystalline salts (weight variation and Karl Fischer in humidity chamber); format: physicochemical; conditions: for KF (t = 0): Karl Fischer value at the beginning of the study; for KF (t = 6 days): Karl Fischer value at the end of the study, 6 days in humidity chamber; for hygroscopicity according to the scale: class by % incorporation of water; for Δ % weigth 24 h / Δ % weigth 48 h / Δ % weigth 6 days: humidity chamber, 64% relative humidity, 25±2° C.
Text: The objective was to measure the hygroscopicity of the salts of the present invention, and comparing it with the one of the known salt of each counter part of the salts. The increasing of the weight will be measured in order to evaluate the incorporation of water in the samples, together with the Karl Fischer factor.
According to “Technical guide for the elaboration of monographs” special issue PharmaEuropa, 3rd ed., December 1999, the hygroscopicity is defined based on the augmentation of weight after 24 hours of exposition to 80% of relative humidity at 25° C. The scale is the following:
Methods: • Preparation of the Humidity chamber: A supersaturated solution of sodium nitrite (45 g/50 ml) is prepared and introduced in a humidification chamber (samplaterecord). The chamber is maintained at a temperature of 25±2° C. during 24 hours before use, and humidity is controlled each day. […] 102.2 mg of sodium naproxen. • The samples are introduced in the conditioned humidity chamber, and the weight is controlled after 24 hours, 48 hours, and 6 days, till an equilibrium is reached (2 successive control with a variation of weight less than 0.2 mg). • The Karl Fischer is also determined (using a Methrom 756 KF) at the beginning and at the end of the study.
The variation of the weight is controlled and the following percentage is calculated: Δ% weigth=(Pn−P1)/P1×100 wherein: P1 is the initial weight, Pn is the weight measured for the sample.

[2] = test system: TNBS-induced colonic hypersensitivity; assay: TNBS-induced colonic hypersensitivity (visceral pain model, colonic distension); format: in vivo, Male Sprague-Dawley rats; conditions: rats, day 7 after TNBS, 5 mg/kg orally, FIG. 12
Procedure: The effect of the salts of the present invention on pain is measured in a model of visceral pain well known in the art: the TNBS-induced colonic hypersensitivity. In this model, the injection of trinitrobenzene sulfonic acid (TNBS) into the proximal colon provoke chronic colonic hypersensitivity, measured in conscious rats by a decreased pain threshold in response to colonic distension.
The animals are Male Sprague-Dawley rats (360-400 g, France). They were housed in a temperature (19.5° C. 24.5° C.) and relative humidity (45%-65%) controlled room with a 12 h—light/dark cycle, with ad libitum access to standard pelleted laboratory chow and water throughout the study.
Fasted (24 hours) animals were undergoing surgery for administration of TNBS (50 mg/kg) into the proximal part of the colon. […]
Day 7 after TNBS injection: Compounds were administered and the colonic hypersensitivity due to TNBS-induced colonic inflammation was measured before the treatment, and at t=20, 45, 90 and 120 min after treatment. […]
The 95% confidence intervals of each of the arithmetic means were also calculated.
Statistical significance between the treated groups and the vehicle-treated group was determined by a two-way repeated measures ANOVA followed, when F-value is significant, by an appropriate post-hoc comparison (Bonferroni's test) using SigmaStat software.

| Compound | KF (t = 0) [1] | KF (t = 6 days) [1] | hygroscopicity according to the scale [1] | Δ % weigth 24 h [1] | Δ % weigth 48 h [1] | Δ % weigth 6 days [1] | colonic threshold (pain threshold to colonic distension) ([2]; 20-120 min after treatment) | anti-hypersensitive effect compared with the corresponding combination (Combo-02) [2] |
| --- | --- | --- | --- | --- | --- | --- | --- | --- |
| COc1ccc2cc([C@H](C)C(=O)[O-])ccc2c1.[Na+] [sodium naproxen] | 1.04 | 12.65 | hygroscopic | 14.39% | 14.39% | 14.3% | – | – |
| COc1cccc(C2(O)CCCCC2CN(C)C)c1 (centres unmarked) [tramadol hydrochloride] | 0.45 | 0.23 | slightly hygroscopic | 0.19% | 0.26% | 0.18% | – | – |
| (R,R)-Tramadol-(S)-Naproxene Salt [Example 2] | – | – | – | – | – | – | nearly recovering the same level of colonic threshold than the naive animal | superior effect |
